Measurements taken from US10274488B2, “Glycan arrays on PTFE-like aluminum coated glass slides and related methods” (Academia Sinica, priority 2008, dated 2019).

What was measured:
Type in all cases: biochemical, Clostridium thermocellum
[1] = test system: endoglucanase 44A; experiment: Enzymatic hydrolysis in solution with purified endoglucanase 44A, MS-TOF assay; conditions: reaction in solution
Experimental: (§1) To verify, the exoglucanases (L3) and endoglucanase (44A) were prepared according methods well known in the literature with minor modifications. First, enzymatic hydrolysis reactions were conducted in solution with the purified enzymes using substrates 8, 9 and 10. At the completion of the reaction, the solution mixtures were transferred to the PTFE-like ACG slide, and prepared by using the same washing procedures before being subjected to MS-TOF assay.
(§2) For each carbohydrate, a specific enzyme was added: (a) is the control run without enzymes, (b) is exoglucanase L3, and (c) is endoglucanase 44A. […]
(§3) Cellulase was prepared (5 U/mL in 25 mM pH 5.05 NaOAc buffer solution). Substrate was also dissolved in NaOAc buffer solution (25 mM, pH 5.05) to give 0.5 mM substrate solution. Add 100 uL cellulase solution to 100 uL substrate solution in eppendorf to have a 2.5 U/mL cellulase solution with 0.25 mM substrate. This solution was incubated in 37° C. for 18 hours. Add 100 μL incubated solution onto the slide loaded in FAST® Frame. Put the slide in dry box to remove the water, and then use high vacuum to remove trace water. 100 μL water was used to rinse each well of the FAST® Frame multi-slide plate to solve and remove the salt of the buffer solution. Remove any residual water on the plate by high vacuum and then analyzed the slide by MALDI-TOF Ultra-Flex II.
(§4) The genomic DNA of Sulfolobus solfataricus (ATCC 35092) and Clostridium thermocellum (ATCC 27405) were obtained from the ATCC biological resource center. The Sso7d (NCBI accession number: AAK42090) gene fragment was amplified directly from the Sulfolobus solfataricus genome by polymerase chain reaction (PCR) with forward 5′ […] 3′ (SEQ ID NO: 1) and reverse 5′ […] 3′ (SEQ ID NO: 2) primers. The PCR product encoding Sso7d was digested with NdeI and BamHI and subsequently cloned into expression vector pET-28a (Novagen) to generate pET-28-Sso7d. […]

[2] = test system: exoglucanase L3; experiment: Enzymatic hydrolysis in solution with purified exoglucanase L3, MS-TOF assay; conditions: reaction in solution
Experimental: as §1, §2, §3, §4

[3] = test system: endoglucanase 44A; experiment: Enzymatic hydrolysis on the PTFE-like ACG surface with endoglucanase 44A, MS-TOF assay; conditions: substrate immobilized on the PTFE-like ACG surface
Experimental: as §2
(§5) For comparison and as illustrated according to implementations shown in FIG. 23, substrate 8, 9, and 10 were immobilized on the PTFE-like ACG surface and carried out the cellulase hydrolysis on the surface directly, after the same washing procedures, these slides were subjected to MS-TOF assay. […] The endoglucanase 44A can't accept compound 8 or 9 as a substrate. […] From the above results, the cellotetraose substrate 10 was the best carbohydrate to create array on the PTFE-like ACG surface for the experiments conducted. By using this array, the activity and specificity of unknown cellulase may be examined.
(§6) Cellulase was prepared (5 U/mL in 25 mM pH 5.05 NaOAc buffer solution). Substrate was also dissolved in NaOAc buffer solution (25 mM, pH 5.05) to give 0.5 mM substrate solution. Add 50 μL cellulase solution to 50 μL substrate solution onto the glass slide which was loaded in FAST® Frame multi-slide plate to have a 2.5 U/mL cellulase solution with 0.25 mM substrate. The well of the plate was sealed and the whole assembly was incubated in 37° C. for 18 hours. Put the slide in dry box to remove the water, and then use high vacuum to remove trace water. 100 uL water was used to rinse each well of the FAST® Frame multi-slide plate to solve and remove the salt of the buffer solution. Remove any residual water on the plate by high vacuum and then analyzed the slide by MALDI-TOF Ultra-Flex II.
as §4, with “primers.” for “primers. The PCR product encoding Sso7d was digested with NdeI and BamHI and subsequently cloned into expression vector pET-28a (Novagen) to generate pET-28-Sso7d.”

[4] = test system: exoglucanase L3; experiment: Enzymatic hydrolysis on the PTFE-like ACG surface with exoglucanase L3, MS-TOF assay; conditions: substrate immobilized on the PTFE-like ACG surface, 24 hours of incubation
Experimental: as §2, §5
as §6, with “The well of the plate was sealed and the whole assembly was incubated in 37° C. for 18 hours.” left out
as §4, with “primers.” for “primers. The PCR product encoding Sso7d was digested with NdeI and BamHI and subsequently cloned into expression vector pET-28a (Novagen) to generate pET-28-Sso7d.”

Cleavage of the substrate by exoglucanase L3 (in words) [2]: quickly
Cleavage of the substrate by endoglucanase 44A (in words) [3]: cleaved cellotetraose quickly
Cleavage of the substrate by exoglucanase L3 (in words) [4]: cleaved the cellobiose quickly
Compound: O=C(NCCCCCO[C@@H]1O[C@H](CO)[C@@H](O[C@@H]2O[C@H](CO)[C@@H](O[C@@H]3O[C@H](CO)[C@@H](O[C@@H]4O[C@H](CO)[C@@H](O)[C@H](O)[C@H]4O)[C@H](O)[C@H]3O)[C@H](O)[C@H]2O)[C@H](O)[C@H]1O)OCCCC(F)(F)C(F)(F)C(F)(F)C(F)(F)C(F)(F)C(F)(F)C(F)(F)C(F)(F)C(F)(F)F [Compound 10, [(4,4,5,5,6,6,7,7,8,8,9,9,10,10,11,11,12,12,12-nonadecafluorododecoxycarbonyl-amino)pentyl] ß-D-glucopyranosyl-(1→4)-ß-D-glucopyranosyl-(1→4)- -ß-D-glucopyranosyl-(1→4)-13-D-glucopyranoside]
Cleavage of the substrate by endoglucanase 44A (in words) [1]: cleaves the trisaccharide or tetrasaccharide unit
